The text below walks through data of paper PMC3436892, “Novel African Trypanocidal Agents: Membrane Rigidifying Peptides” (PLoS ONE, 2012).

Assay [1] concerns Live BSF T. b. brucei. Particulars: previously reported; cited from earlier work. The text has this:
Treatment of BSF African trypanosomes with SHP results in multiple physiological alterations. Addition of SHP-1 to BSF trypanosomes, which were subsequently immobilized in gelatin, decreases the fraction of laterally mobile surface exposed VSG (Fig. 2c). This effect may be directly due to increased membrane rigidity, or indirectly due to a decrease in the mobility of membrane spanning proteins and potential interactions with the VSG. Another physiological consequence, that may or may not be related to membrane rigidification, is SHP-induced changes in cell motility. Previously we reported that ...

Assay [2] deals with Bloodstream developmental forms of T. vivax. Briefly: 2 h in vitro killing assay, T. vivax. In kind it is cell-based, Trypanosoma vivax strain ILRAD V34. Conditions: 37°C, 1×10^7 cells/mL, HMI 9 with 20 % bovine serum, hemocytometer, at concentrations similar to BSF T. brucei (Fig. 1b). As to the method: (§1) Light microscopy based trypanosome killing assays were performed as previously described in detail, [10], [21], [22]. Metacyclic Trypanosoma brucei brucei strain STIB247 were obtained from dissection of the salivary glands of infected tsetse flies. Newly hatched Glossina morsitans morsitans (24–48 h post eclosion) were fed two defibrinated horse blood meals containing 2×10^6 mL^-1 trypanosomes on two separate days. Flies were then maintained at 25°C in 75 % relative humidity and fed maintenance blood meals three times per week. Following day 20–30, flies were harvested and salivary glands were dissected out and placed into HMI 9 media containing 10 % fetal bovine serum for 30 minutes. Metacyclic cells were expelled into the media by the residual peristalsis of the salivary glands. Cells were collected via centrifugation and maintained in HMI 9 media with 20 % fetal bovine serum at 37°C in 5 % CO2 until use. Killing assays were conducted with 1×10^4 cells/mL in HMI 9 media containing 10 % fetal bovine serum. Live cells were scored via hemocytometer after 2 h incubation. Trypanosoma vivax strain ILRAD V34 and Trypanosoma congolense strain IL3000 were grown from stabilites in donor ICR mouse (Harlan, United Kingdom). […] Cells were incubated at 37°C for 2 h and live cells were scored visually via hemocytometer. […]

The subject of assay [3] is interfacial region of the plasma membrane of BSF T. b. brucei. Briefly: TMA-DPH fluorescence anisotropy (interfacial membrane rigidity). In kind it is cell-based, Trypanosoma brucei brucei. Particulars: live BSF cells 3×10^6 cells/mL in PBS, 0.5 µM TMA-DPH, 37°C, increasing SHP concentrations, triplicate (Fig. 2b). How it is done: The plasma membrane rigidity of live T. b. brucei was determined by measuring the fluorescence depolarization of diphenyl-1,3,5- hexatriene p-toluenesulfonate (DPH) or 1-(4-trimethylammoniumphenyl)-6-diphenyl-1,3,5- hexatriene p-toluenesulfonate (TMA-DPH; Invitrogen T204). Cells were washed 3 times with and resuspended in phosphate buffered saline at a density of 3×10^6 cells/mL. The anisotropic probes were added to a final concentration of 0.5 µM and allowed to intercalate into the cell membrane for 1 h in the dark. Anisotropic values were acquired via the software function of a PerkinElmer Life Sciences LS55 spectrofluorometer. Samples were excited at 358 nm, and emission was read at 430 nm, with 10-nm excitation and emission slit widths. Temperature was maintained at 37°C by means of the PerkinElmer LS55 Biokinetics accessory. Data were corrected for light scattering with an unlabeled sample of cells, and anisotropy was calculated according to the equation r = (IVV - GIVH)/(IVV + 2GIVH), where r is the anisotropy value, IVV is the emission intensity acquired with the excitation- and emission-polarizing filters set vertically, G is the instrument correction factor, and IVH is the emission intensity acquired with the excitation-polarizing filter set vertically and the emission-polarizing filter set horizontally. […]
(In general: In fluorescence polarisation assays a small probe gives low polarisation when free and higher when bound to something large.)

Assay [4] has as its system Live BSF T. b. brucei. In words: Trypanosome motility scoring by DIC microscopy. In kind it is cell-based, Trypanosoma brucei brucei. Conditions: 40 µM SHP, 37°C, 1×10^7 cells/mL, HMI 9 with 10 % fetal bovine serum, DIC microscopy, at least duplicate (Fig. 2d). As to the method: All images and videos were acquired with an Axio Observer Z1 equipped with an AxioCam MRm controlled by AxioVision 4.6 software. Videos were acquired with live cells at a density of 1×10^7 cells/mL in HMI 9 media with 10 % fetal bovine serum, incubated with 40 µM SHP at 37°C. Trypanosomes were visualized at magnification 63 × and videos were recorded with 100-ms acquisition times. The motility of BSF trypanosomes was scored directly or from video playback. Trypanosome motility was classified as normal, hyperactive or constricted as described previously. An example of a trypanosome scored as normal is shown in Movie S1. […] Data in figure 2D is shown as the average of at least duplicate trials with standard deviations.

The test system of another assay is BSF T. b. brucei. Particulars: veterinary and human pathogenic BSF T. brucei; cited from earlier work. From the text:
Specificity of SHP is mediated by a high degree of fluidity in the plasma membrane of BSF cells. […] Human cells, including erythrocytes, are refractory to SHP concentrations orders of magnitude higher than necessary to kill BSF T. brucei.

Assay [5] relates to Bloodstream developmental forms of T. congolense. Briefly: 2 h in vitro killing assay, T. congolense. In kind it is cell-based, Trypanosoma congolense strain IL3000. Particulars: 37°C, 1×10^7 cells/mL, HMI 9 with 20 % bovine serum, hemocytometer, at concentrations similar to BSF T. brucei (Fig. 1b). How it is done:
as §1

Consider “SDLGAVISLLLWGRQLFA [SHP-1, trypanocidal small hydrophobic peptide derived from an apolipoprotein, with characteristics of a secretory signal peptide]”, for which the “effect on motility of BSF trypanosomes” value with Live BSF T. b. brucei [1] was “initial hyperactivation followed by constricted motility and death”. For the same sequence, the “susceptibility of BSF T. vivax to killing” value in assay [2] was “susceptible to killing”. Also, the “interfacial rigidity of the plasma membrane (TMA-DPH fluorescence depolarization)” value in assay [3] was “increased the interfacial rigidity”. Also, in the assay with Live BSF T. b. brucei [4], the “constriction of motility following hyperactivation” value is reported as “subsequent constriction” and the hyperactivation of motility result is “hyperactivation”. For the same sequence, in the assay on BSF T. b. brucei, the “susceptibility of BSF T. brucei to killing” value was “uniquely susceptible to killing”. The “susceptibility of BSF T. congolense to killing” value in assay [5] is reported as “susceptible to killing”.
